Data reported in patent publication US7208491B2, “N-monoacylated o-phenylenediamines” (Hoffmann-La Roche Inc., priority 2003, dated 2007).

system: histone deacetylase (HDAC); assay: cellular acetylation assay (acetylation of histones in PC3 cells, ELISA); type: cell-based; settings: PC3 human prostate carcinoma cells; compound 1 μM; 24 h incubation; ELISA with antibodies against acetylated histone H3 or H4
Procedure: Therein acetylation of histones is monitored in PC3 cells. High acetylation correlates with inhibition of histone deacetylase by compounds. Cell viability is monitored in parallel to estimate the cytotoxicity of compounds.
PC3 cells, a human prostate carcinoma cell line, are seeded as 1800 cells per well of a 384-well microtiterplate in RPMI 1640 (including 5% FCS, 2 mM glutamine and pen/strep).
After 48 h at 37° C. pre-diluted compounds are added to a final concentration of 1 uM. Compounds are pre-diluted in dimethyl sulfoxide (DMSO) resulting in a final concentration of DMSO of 0.5% per well.
After 24 h incubation cell viability is determined by adding cell proliferation reagent WST-1 (Roche Molecular Biochemicals). Another 60 min later the optical density (OD) is measured (450 nm versus 690 nm).
After measurement the cell layer is prepared for the ELISA reaction. Medium is aspirated and cells are fixed in ethanol at −20° C. for 60 min. After washing with PBS/Tween the blocking solution (PBS/5% FCS/Tween) is added and the cell layer is washed again. Antibodies against acetylated histone H3 or H4 (rabbit polyklonal IgG, Upstate Biotechnologie) are added at a dilution of 1:200 for 60 min at 37° C. As a second antibody goat anti rabbit IgG (H+L) humanIgG adsorbed-HRP conjugate (Dako) is used (1:2000 diluted). Cells are washed 3 times and the peroxidase substrate ABTS is allowed to react for 30–60 min at 37° C. The OD is measured at 405 nm.
The percentage of acetylation is calculated after substraction of blank O.D.s: […]

Compound	cell acetylation (PC3, 1 μM) [% of control]
CC(=O)Nc1ccc(C(=O)Nc2ccccc2N)cc1 [4-acetylamino-N-(2-amino-phenyl)-benzamide, reference compound]	152 % of control
CN(C)CCCOc1ccc2sc(C(=O)Nc3ccccc3N)cc2c1 [Example 2, 5-(3-Dimethylamino-propoxy)-benzo[b]thiophene-2-carboxylic acid (2-amino-phenyl)-amide]	209 % of control
CC(C)N(CCOc1ccc2sc(C(=O)Nc3ccccc3N)cc2c1)C(C)C [Example 3, 5-(2-Diisopropylamino-ethoxy)-benzo[b]thiophene-2-carboxylic acid (2-amino-phenyl)-amide]	172 % of control
Nc1ccccc1NC(=O)c1cc2cc(OCCO)ccc2s1 [Example 16, 5-(2-Hydroxy-ethoxy)-benzo[b]thiophene-2-carboxylic acid (2-amino-phenyl)-amide]	156 % of control
Nc1ccccc1NC(=O)c1cc2cc(CCO)ccc2o1 [Example 24, 5-(2-Hydroxy-ethyl)-benzofuran-2-carboxylic acid (2-amino-phenyl)-amide]	157 % of control

system: not given; assay: not given; settings: not given

melting point [°C]	Compound
215 to 216	Nc1ccccc1NC(=O)c1cc2cc(OCCO)ccc2s1 [Example 16, 5-(2-Hydroxy-ethoxy)-benzo[b]thiophene-2-carboxylic acid (2-amino-phenyl)-amide]
